Our source for the IC50, inhibition and inhibition in vivo values is ChEMBL document CHEMBL1136711, “Synthesis and SAR of bicyclic heteroaryl hydroxamic acid MMP and TACE inhibitors” (Bioorg Med Chem Lett, 2003).

In one assay the target is T1, Interstitial collagenase (Homo sapiens, UniProt P03956).
T1 sequence (P03956 whole entry): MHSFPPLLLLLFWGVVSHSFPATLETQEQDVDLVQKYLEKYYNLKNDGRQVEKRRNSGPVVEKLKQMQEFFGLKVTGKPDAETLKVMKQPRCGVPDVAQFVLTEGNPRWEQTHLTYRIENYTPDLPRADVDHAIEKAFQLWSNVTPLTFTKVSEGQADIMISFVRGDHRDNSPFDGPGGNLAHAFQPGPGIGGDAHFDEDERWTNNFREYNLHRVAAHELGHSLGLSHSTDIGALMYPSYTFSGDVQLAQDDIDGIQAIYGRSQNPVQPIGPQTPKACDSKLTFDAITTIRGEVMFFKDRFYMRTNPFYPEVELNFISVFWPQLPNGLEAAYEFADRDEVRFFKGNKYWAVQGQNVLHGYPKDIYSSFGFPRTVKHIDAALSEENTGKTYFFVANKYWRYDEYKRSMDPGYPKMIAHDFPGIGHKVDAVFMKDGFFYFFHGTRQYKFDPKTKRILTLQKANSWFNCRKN
The assay is described as follows: Inhibitory activity against matrix metalloprotease 1 (MMP-1).

Assay [1] deals with Matrix metalloproteinase-9 (Homo sapiens, UniProt P14780). The assay is described as follows: Inhibitory activity against matrix metalloprotease 9 (MMP-9).
The next assay deals with Collagenase 3 (Homo sapiens, UniProt P45452). Briefly: Inhibitory activity against matrix metalloprotease 13 (MMP-13).
The target of assay [2] is Disintegrin and metalloproteinase domain-containing protein 17 (Homo sapiens, UniProt P78536). The assay is described as follows: Inhibitory activity against TACE.
Another assay is filed under the species Bos taurus. Briefly: Ex vivo inhibition of cartilage degradation at 100 nM concentration in the bovine articular cartilage explant assay. In kind it is functional. As to conditions: Cartilage tissue.
Assay [3] deals with Mus musculus. Briefly: In vivo inhibition of MMP-13 at 25 mpk po 1 hr after dosing in the mouse dialysis tubing implant assay. The class given is functional.
The next assay deals with Rattus norvegicus. The assay is described as follows: In vivo inhibition of cartilage degradation at 50 mpk po bid in the rat sponge-wrapped cartilage implant model. In kind it is functional.
A further assay deals with THP-1. The assay is described as follows: In vitro inhibition of TNF-alpha release at a concentration of 3 uM by using THP cellular assay. The class given is functional, cell-based. As to conditions: Homo sapiens.
In assay [4] the test system is Mus musculus. Briefly: In vivo inhibition of MMP-13 at 50 mpk po 1 hr after dosing in the mouse dialysis tubing implant assay. In kind it is functional.

Sequence of Disintegrin and metalloproteinase domain-containing protein 17 (P78536 whole entry, the tested form may be a part): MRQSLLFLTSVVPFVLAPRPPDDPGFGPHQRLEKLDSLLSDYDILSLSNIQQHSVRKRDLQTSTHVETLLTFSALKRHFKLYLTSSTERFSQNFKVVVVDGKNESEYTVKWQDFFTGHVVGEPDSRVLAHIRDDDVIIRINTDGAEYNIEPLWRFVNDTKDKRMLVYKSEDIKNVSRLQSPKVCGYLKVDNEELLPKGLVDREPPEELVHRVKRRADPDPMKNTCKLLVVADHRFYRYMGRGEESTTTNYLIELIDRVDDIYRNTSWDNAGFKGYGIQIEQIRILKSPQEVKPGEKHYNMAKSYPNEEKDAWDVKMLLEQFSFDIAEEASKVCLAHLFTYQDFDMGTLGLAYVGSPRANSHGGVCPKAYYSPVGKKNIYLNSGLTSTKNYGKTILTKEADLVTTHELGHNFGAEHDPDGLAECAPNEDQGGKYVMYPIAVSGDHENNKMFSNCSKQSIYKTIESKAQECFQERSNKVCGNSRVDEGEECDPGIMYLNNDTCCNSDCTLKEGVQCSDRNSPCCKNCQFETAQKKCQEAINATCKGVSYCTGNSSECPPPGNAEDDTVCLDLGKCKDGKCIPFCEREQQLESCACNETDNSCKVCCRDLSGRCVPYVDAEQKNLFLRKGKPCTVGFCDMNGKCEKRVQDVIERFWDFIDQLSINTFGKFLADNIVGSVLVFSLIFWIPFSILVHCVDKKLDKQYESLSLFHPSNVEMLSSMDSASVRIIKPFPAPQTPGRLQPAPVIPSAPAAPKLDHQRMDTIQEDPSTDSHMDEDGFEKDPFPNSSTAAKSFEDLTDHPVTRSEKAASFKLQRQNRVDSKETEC
Sequence of Matrix metalloproteinase-9 (P14780 whole entry): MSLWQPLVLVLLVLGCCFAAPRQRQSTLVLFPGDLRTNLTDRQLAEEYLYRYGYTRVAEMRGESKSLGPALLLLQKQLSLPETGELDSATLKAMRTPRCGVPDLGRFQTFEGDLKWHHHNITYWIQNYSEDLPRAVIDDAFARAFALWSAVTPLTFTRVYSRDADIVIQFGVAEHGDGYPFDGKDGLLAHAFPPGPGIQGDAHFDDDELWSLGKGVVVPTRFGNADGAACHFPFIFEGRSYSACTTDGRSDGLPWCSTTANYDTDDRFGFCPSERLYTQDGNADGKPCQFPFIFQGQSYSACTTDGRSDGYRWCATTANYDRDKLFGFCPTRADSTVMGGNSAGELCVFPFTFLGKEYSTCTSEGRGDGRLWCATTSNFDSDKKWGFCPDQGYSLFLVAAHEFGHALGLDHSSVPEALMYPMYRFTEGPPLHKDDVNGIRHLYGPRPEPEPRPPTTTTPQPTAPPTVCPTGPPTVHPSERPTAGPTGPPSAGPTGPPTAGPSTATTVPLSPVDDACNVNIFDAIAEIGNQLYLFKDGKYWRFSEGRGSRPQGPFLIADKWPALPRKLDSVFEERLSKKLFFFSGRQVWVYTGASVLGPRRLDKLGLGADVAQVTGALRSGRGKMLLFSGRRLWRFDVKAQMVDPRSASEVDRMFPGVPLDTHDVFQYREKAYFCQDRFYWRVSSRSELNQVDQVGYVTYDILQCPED

A word on the IC50: it is the concentration at which inhibition is half-maximal. A low value points to greater potency. For `COc1ccc(S(=O)(=O)N(Cc2cccnc2)c2c(C(=O)NO)cnc3c(-c4cccs4)cccc23)cc1`, inhibition against Interstitial collagenase was half-maximal at 136 nM (IC50).

For the molecule `COc1ccc(S(=O)(=O)N(Cc2ccccc2)c2c(C(=O)NO)cnc3ccc(C(F)(F)F)cc23)cc1`, the IC50 was 11 nM in assay [1], 7 nM against Collagenase 3 and > 1000 nM in assay [2].

`COc1ccc(S(=O)(=O)N(Cc2cccnc2)c2c(C(=O)NO)cnc3c2c(C)nn3-c2ccccc2)cc1` came in with an IC50 against Interstitial collagenase of 115 nM.

Take `CC#CCOc1ccc(S(=O)(=O)N(C)c2c(C(=O)NO)cnc3onc(C)c23)cc1`: inhibition in [2] was half-maximal at 6 nM (IC50).

As to `COc1ccc(S(=O)(=O)N(Cc2ccccc2)c2c(C(=O)NO)cnc3cc(Br)ccc23)cc1`, the half-maximal inhibitory concentration (IC50) in assay [1] is 11 nM; against Collagenase 3, 7 nM; in assay [2] it was > 1000 nM.

Consider `O=C(NO)c1cnc2cc(C(F)(F)F)ccc2c1N(Cc1cccnc1)S(=O)(=O)c1ccc(-c2ccccc2)cc1`, for which the IC50 worked out at 1160 nM in [1] and 124 nM in assay [2].

As usually defined, the inhibition is the percentage by which the read-out fell short of the control. Lower therefore signals a response near the control. Usually inhibition in vivo stands for the percentage by which the read-out fell short of the control. High values mean a strong effect, low ones a weak effect. As to `Cc1nn(C)c2ncc(C(=O)NO)c(N(C)S(=O)(=O)c3ccc(Oc4ccncc4)cc3)c12`, the inhibition at 0.1 µM in the assay filed under Bos taurus was determined as 61%. Moreover, the IC50 in assay [1] was 2 nM; in assay [2], > 100 nM. This molecule returned an inhibition in vivo at 25 mg/kg in the assay with Mus musculus [3] of 54%. The inhibition in vivo at 50 mg/kg in the assay on Rattus norvegicus stood at 46%.

As for `CC#CCOc1ccc(S(=O)(=O)N(C)c2c(C(=O)NO)cnc3c(Br)cccc23)cc1`, the inhibition with THP-1 turned out to be 32%.

Molecule `COc1ccc(S(=O)(=O)N(Cc2cccnc2)c2c(C(=O)NO)cnc3snc(C)c23)cc1` registered an IC50 in assay [1] of 2 nM.

For `CCCCOc1ccc(S(=O)(=O)N(C)c2c(C(=O)NO)cnc3c2c(C)nn3C)cc1`, the half-inhibitory concentration (IC50) in assay [1] amounted to 7 nM; on Interstitial collagenase it was 1920 nM; against Collagenase 3 it was 3 nM; in [2], 86 nM.

With `COc1ccc(S(=O)(=O)N(Cc2ccccc2)c2c(C(=O)NO)cnc3ccc(Br)cc23)cc1`, the IC50 in [1] was 8 nM; against Interstitial collagenase, 108 nM; against Collagenase 3 it was 6 nM; in assay [2] it was > 1000 nM.

`COc1ccc(S(=O)(=O)N(C)c2c(C(=O)NO)cnc3c(Br)cccc23)cc1` showed an IC50 in assay [2] of 296 nM.

`CC#CCOc1ccc(S(=O)(=O)N(C)c2c(C(=O)NO)cnc3c2c(C)nn3C)cc1` returned an IC50 in [1] of 100 nM.

On to `COc1ccc(S(=O)(=O)N(Cc2cccnc2)c2c(C(=O)NO)cnc3c2cnn3-c2ccccc2)cc1`, for which the 50% inhibitory concentration (IC50) is 6 nM in assay [1], 20 nM at Collagenase 3 and 435 nM in assay [2].

As to `Cc1ccc(S(=O)(=O)N(Cc2cccnc2)c2c(C(=O)NO)cnc3cc(C(F)(F)F)ccc23)cc1`, the IC50 (in [1]; on Interstitial collagenase; against Collagenase 3; in assay [2]) was > 1000 nM throughout.

Take `Cc1nn(C)c2ncc(C(=O)NO)c(N(C)S(=O)(=O)c3ccc(Oc4ccc(Cl)cc4)cc3)c12`: the half-maximal inhibitory concentration (IC50) was found to be 116 nM on Interstitial collagenase and 356 nM in [2].

In the case of `Cc1nn(C)c2ncc(C(=O)NO)c(N(C)S(=O)(=O)c3ccc(F)cc3)c12`, the IC50 was 595 nM in assay [1], 177 nM against Interstitial collagenase, 170 nM on Collagenase 3 and > 1000 nM in [2].

Take `CN(c1c(C(=O)NO)cnc2ccccc12)S(=O)(=O)c1ccc(Oc2ccncc2)cc1`: in the assay filed under Bos taurus, the inhibition at 0.1 µM amounted to 42%. In addition, the IC50 was 1010 nM against Interstitial collagenase, 1 nM against Collagenase 3 and 124 nM in assay [2]. The figures for the inhibition in vivo at 50 mg/kg with Rattus norvegicus and in the assay with Mus musculus [4] were 44% and 90%, respectively.

For `COc1ccc(S(=O)(=O)N(Cc2cccnc2)c2c(C(=O)NO)cnc3cc(C(F)(F)F)ccc23)cc1`, the IC50 was 4 nM in [1], 1 nM at Collagenase 3 and 1000 nM in [2].

With `COc1ccc(S(=O)(=O)N(Cc2cccnc2)c2c(C(=O)NO)cnc3c(I)cccc23)cc1`, the figures for the IC50 (in assay [1]; against Collagenase 3; in [2]) were 3 nM, 3 nM and 124 nM, respectively.

With `C=Cc1cccc2c(N(C)S(=O)(=O)c3ccc(OC)cc3)c(C(=O)NO)cnc12`, the half-inhibitory concentration (IC50) came to 5 nM in assay [1], 200 nM at Interstitial collagenase, 5 nM at Collagenase 3 and 205 nM in [2].

Consider `CC#CCOc1ccc(S(=O)(=O)N(C)c2c(C(=O)NO)cnc3c(OC)cccc23)cc1`, for which, at Collagenase 3, it took 9 nM to reach half-maximal inhibition (IC50).
